The results in this text go back to US9233978B2, “6-fused heteroaryldihydropyrimidines for the treatment and prophylaxis of hepatitis B virus infection” (Hoffmann-La Roche Inc., priority 2014, dated 2016).

Usually pEC50 stands for −log10 of the EC50, conventionally taken in molar units. The term CC50 denotes the concentration that lowers cell viability or growth by half. The thermodynamic solubility is the concentration in solution at equilibrium with solid.

The structures appear in SMILES notation. pEC50: −log10 of the molar value. In brackets after ≈: the same amount, converted by molar mass. Like-named read-outs stand apart in the source and are kept apart here. Bounds are passed on as bounds.

One data set deals with HBV. The data set can be described thus: Anti-HBV activity in vitro, HepG2.2.15 cells, extracellular HBV DNA by qPCR. The following applies: Hepatitis B virus, HepG2.2.15, 120 h. The data set is classed as cell-based. An outline of the steps: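 Extracellular HBV DNA in culture supernatant was measured by qPCR after nucleic acid extraction. The supernatant came from constitutively replicating HepG2.2.15 cells exposed for five days to half-log-diluted compounds, with DMSO at 0.5% final. Cells had been plated overnight at 37 °C beforehand.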
On the technique in general: Real-time PCR tracks product formation cycle by cycle.

A short description of data set [1]: Cytotoxicity in HepDE19 cells (CCK-8) and selectivity index. As to conditions: human, HepDE19 cells; CCK-8 cell viability; five days after treatment. The data set is classed as cell-based. An outline of the steps: (§1)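 HepDE19 cells (DMEM-F12, 10% FBS) were treated with compound for five days, then given CCK-8 for 2 h at 37 °C and read at OD450 and OD630. CC50 is the concentration killing 50% of host cells. Selectivity index is CC50/EC50.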

A further data set relates to HepDE19 cells. Described as above. The format is cell-based. As to conditions: CC50 (HepDE19) value / EC50 (HepG2.2.15) value. A digest of the protocol: as §1
Data set [2] in a line: Human microsomal metabolic stability. The data set is classed as in vitro ADME. The following applies: human microsomes 0.5 mg/mL, 1 μM test compound, NADPH, 37° C., pH 7.4, 0-30 minutes. A digest of the protocol: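 1 μM compound with 0.5 mg/mL human liver microsomal protein in 100 mM phosphate pH 7.4 at 37° C, started with 1 mM NADPH or a NADPH-regenerating system. Sampled at 0–30 min, quenched in cold methanol with tolbutamide internal standard; remaining parent quantified by LC-MS/MS.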

A short description of another data set: Lysa solubility. The format is physicochemical. As to conditions: phosphate buffer, pH 6.5, aqueous buffer, thermodynamic from solid, 0.05 M phosphate buffer (pH 6.5). A digest of the protocol: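 Duplicate samples dried from 10 mM DMSO stocks, taken up in 0.05 M phosphate buffer pH 6.5, stirred 1 h, shaken 2 h and left overnight. Filtrate and 1/10 dilution quantified by direct UV or HPLC-UV, in μg/mL; above 80% of the calculated maximum, reported as greater than that value.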

A further data set has as its system CYP3A4. The data set can be described thus: Cytochrome P450 induction screening assay, mRNA induction in human cryopreserved hepatocytes. The data set is classed as in vitro ADME. As to conditions: CYP3A4 mRNA relative induction, 24 hours, test compound up to 10 μM. How it is done:
Human cryopreserved hepatocytes (Life Technologies, Carlsbad, USA) were thawed and cultured in collagen I coated 96-well plates with a density of 52,000 cells/well. After attachment, medium was changed and cells were pre-cultured overnight in hepatocyte maintenance medium (HMM; Lonza, Switzerland).
Test compounds were dosed to the cells next morning at an indicated concentration (up to 10 μM) in HMM culture media containing gentamycin and a constant 0.1% DMSO. Similarly, dilutions of the positive inducer compounds omeprazole (prototypical inducer of human CYP1A2; final concentrations: 1 and 10 μM), phenobarbital (prototypical inducer of human CYP2B6; final concentrations: 100 and 1000 μM) and rifampicin (prototypical inducer of human CYP3A4; final concentrations: 1 and 10 μM) were prepared from 1000 fold DMSO stock solutions in HMM containing gentamycin. Medium change was then performed and cells were exposed for 24 hours to test compounds, positive inducer compounds, or vehicle (0.1% DMSO), respectively.
At the end of the compound exposure period, medium was removed and cells lysed using 100 μL/well MagNA Pure LC RNA isolation tissue lysis buffer (Roche Diagnostics AG, Rotkreuz, Switzerland). Plates were then sealed and frozen at −80° C. until further workup.
mRNA isolation was performed using the MagNA Pure 96 system (Roche Diagnostics AG, Rotkreuz, Switzerland) and the respective cellular RNA large volume kit (Roche Diagnostics AG, Rotkreuz, Switzerland) from thawed samples diluted 1:1 with PBS. The volume of the cell lysis and an elution volume of 100 μL were used. 20 μl of the resulting mRNA suspension was then used for reverse transcription using 20 μl of the transcript or first stand cDNA synthesis kit (Roche prime Supply, Mannheim, Germany). The resulting cDNA was diluted with 40 μl of H2O before using for qRT-PCR. qRT-PCR was performed by using the forward and the reverse primer, the corresponding UPL (all from Microsynth, Balgach, Switzerland) and the Taqman Fast advanced master mix (Applied Biosystems), on an ABI 7900 machine (Applied Biosystems).
qRT-PCR Ct-values for the respective P450s were put into relation to the Ct-value of RN18S1 (microsynth, Balgach, Switzerland) of the same sample. Doing so, a respective Δct-value was calculated. Using the average of all Δct-values for the vehicle control samples, a ΔΔct-value was calculated for each sample (ΔΔct-value(sample)=Δct-value(sample)−average of Δct-value of all vehicle controls). The fold induction of the respective sample was calculated as 2^(−ΔΔct). The individual fold induction values were then averaged per treatment condition (usually n=3 biological replicates).
Relative induction values to the respective positive inducer compound condition (10 μM omeprazole for CYP1A2; 1000 μM Phenobarbital for CYP2B6; 10 μM rifampicin for CYP3A4) were then calculated from the fold induction values as follows: Relative induction (%)=100×(T−V)/(P−V)

The mark [3] stands for this setting: HepG2.2.15 cells, HBV replication inhibited by 50%, extracellular HBV DNA by qPCR, five days after compound treatment, read-out: EC50.

Take `CCOC(=O)C1=C(CN2CCN3C(=O)N(C4CCC(C(=O)O)C4)C[C@@H]3C2)NC(c2nccs2)=N[C@H]1c1cccc(F)c1Cl` (mixture of isomers) [Example 62, (R)-6-[(S)-2-((1R,3S)-3-Carboxy-cyclopentyl)-3-oxo-hexahydro-imidazo[1,5-a]pyrazin-7-ylmethyl]-4-(2-chloro-3-fluoro-phenyl)-2-thiazol-2-yl-1,4-dihydro-pyrimidine-5-carboxylic acid ethyl ester and (R)-6-[(S)-2-((1S,3R)-3-Carboxy-cyclopentyl)-3-oxo-hexahydro-imidazo[1,5-a]pyrazin-7-ylmethyl]-4-(2-chloro-3-fluoro-phenyl)-2-thiazol-2-yl-1,4-dihydro-pyrimidine-5-carboxylic acid ethyl ester]: the pEC50 with HBV (setting [3]) is 8.22. Besides, the CC50 at 5 days in data set [1] was more than 100000 nM. Besides, the “Selectivity index (CC50/EC50)” value in the data set on HepDE19 cells is more than 16667. The “Human Microsomal Clearance” value in data set [2] amounted to 1.7 mL/min/kg. The same molecule gave a solubility (thermodynamic) in “Lysa solubility” of 374 µg/mL. Besides, in the data set with CYP3A4, the “% of Positive control (10 μM Rifampicin)” value came out at 0%.
Regarding `COC(=O)C1=C(CN2CCN3C(=O)N(C4CC4)C[C@@H]3[C@H]2C(=O)O)NC(c2nccs2)=N[C@H]1c1ccc(F)cc1Cl` (racemic) [Example 45, 7-[[(4R)-4-(2-chloro-4-fluoro-phenyl)-5-methoxycarbonyl-2-thiazol-2-yl-1,4-dihydropyrimidin-6-yl]methyl]-2-cyclopropyl-3-oxo-5,6,8,8a-tetrahydro-1H-imidazo[1,5-a]pyrazine-8-carboxylic acid], the pEC50 in the data set with HBV (setting [3]) is 7.59. In addition, the thermodynamic solubility in “Lysa solubility” is more than 690 µg/mL. Moreover, the “% of Positive control (10 μM Rifampicin)” value in the data set on CYP3A4 is recorded as 20%.
In the data set with HBV, `CCOC(=O)C1=C(CN2CCN3C(=O)N(C4CC4)C[C@@H]3[C@H]2C(=O)O)NC(c2nccs2)=N[C@H]1c1cccc(F)c1Cl` (single isomer, unassigned) [Example 82B] had a pEC50 of 8.70. Also, in data set [1], the CC50 at 5 days was more than 100000 nM. Further, the “Selectivity index (CC50/EC50)” value in the data set with HepDE19 cells is listed as more than 50000. Also, the “Human Microsomal Clearance” value in data set [2] is reported as 2.7 mL/min/kg. Further, the “% of Positive control (10 μM Rifampicin)” value in the data set with CYP3A4 is recorded as 6%.
On to `CCOC(=O)C1=C(CN2CCN3C(=O)N(C(C)(C)C)C[C@@H]3[C@H]2C(=O)O)NC(c2nccs2)=N[C@H]1c1cccc(F)c1Cl` (single isomer, unassigned) [Example 87B], for which, in the data set with HBV (setting [3]), the pEC50 is 9.00. In data set [1], this molecule showed a CC50 at 5 days of more than 100000 nM. Further, the “Selectivity index (CC50/EC50)” value in the data set on HepDE19 cells was more than 100000. Further, the “Human Microsomal Clearance” value in data set [2] is reported as 5.0 mL/min/kg. Besides, the “% of Positive control (10 μM Rifampicin)” value in the data set on CYP3A4 is on record as 4.0%.
Consider `COC(=O)C1=C(CN2CCN3C(=O)NC[C@@H]3C2)NC(c2nccs2)=N[C@H]1c1ccc(F)cc1Cl` [Example 11, Methyl (4R)-6-[[(8aR)-3-oxo-1,2,5,6,8,8a-hexahydroimidazo[1,5-a]pyrazin-7-yl]methyl]-4-(2-chloro-4-fluoro-phenyl)-2-thiazol-2-yl-1,4-dihydropyrimidine-5-carboxylate], for which, in the data set with HBV (setting [3]), the pEC50 is 9.00. Moreover, the CC50 at 5 days in data set [1] amounted to 52000 nM. Further, in the data set with HepDE19 cells, the “Selectivity index (CC50/EC50)” value is 30635. The “% of Positive control (10 μM Rifampicin)” value in the data set with CYP3A4 worked out at 17%.
As to `CCOC(=O)C1=C(CN2CCN3C(=O)N(CC(C)(C)C(=O)O)C[C@@H]3C2)NC(c2nccs2)=N[C@H]1c1ccc(F)c(F)c1C` [Example 22, 3-[(8aS)-7-[[(4S)-4-(3,4-difluoro-2-methyl-phenyl)-5-ethoxycarbonyl-2-thiazol-2-yl-1,4-dihydropyrimidin-6-yl]methyl]-3-oxo-5,6,8,8a-tetrahydro-1H-imidazo[1,5-a]pyrazin-2-yl]-2,2-dimethyl-propanoic acid], the pEC50 in the data set with HBV (setting [3]) was 8.52. For the same molecule, in data set [1], the CC50 at 5 days was more than 100000 nM. Besides, the “Selectivity index (CC50/EC50)” value with HepDE19 cells was more than 34482. In the data set with CYP3A4, the “% of Positive control (10 μM Rifampicin)” value worked out at 0%.
On to `COC(=O)C1=C(CN2CCN3C(=O)N(c4ccc(C(=O)O)cc4)C[C@@H]3C2)NC(c2nccs2)=N[C@H]1c1ccc(F)cc1Cl` [Example 25, (R)-6-[(S)-2-(4-Carboxy-phenyl)-3-oxo-hexahydro-imidazo[1,5-a]pyrazin-7-ylmethyl]-4-(2-chloro-4-fluoro-phenyl)-2-thiazol-2-yl-1,4-dihydro-pyrimidine-5-carboxylic acid methyl ester], for which the pEC50 in the data set with HBV (setting [3]) is 8.70. The “Human Microsomal Clearance” value in data set [2] was 0.4 mL/min/kg. Moreover, in the data set on CYP3A4, the “% of Positive control (10 μM Rifampicin)” value was found to be 0%.
As for `CCOC(=O)C1=C(CN2CCN3C(=O)N(c4cccc(C(=O)O)c4)C[C@@H]3C2)NC(c2nccs2)=N[C@H]1c1cccc(F)c1Cl` [Example 27, (R)-6-[(S)-2-(3-Carboxy-phenyl)-3-oxo-hexahydro-imidazo[1,5-a]pyrazin-7-ylmethyl]-4-(2-chloro-3-fluoro-phenyl)-2-thiazol-2-yl-1,4-dihydro-pyrimidine-5-carboxylic acid ethyl ester], the pEC50 with HBV (setting [3]) is 8.52. The “% of Positive control (10 μM Rifampicin)” value in the data set on CYP3A4 was determined as 0.2%.
For the molecule `COC(=O)C1=C(CN2CCN3C(=O)N(C4CC4)CC3(CC(=O)O)C2)NC(c2nccs2)=N[C@H]1c1ccc(F)cc1Cl` (stereo partly drawn) [Example 30, 2-[7-[[(4R)-4-(2-chloro-4-fluoro-phenyl)-5-methoxycarbonyl-2-thiazol-2-yl-1,4-dihydropyrimidin-6-yl]methyl]-2-cyclopropyl-3-oxo-1,5,6,8-tetrahydroimidazo[1,5-a]pyrazin-8a-yl]acetic acid], the pEC50 in the data set on HBV (setting [3]) is 7.02. For the same molecule, the “Human Microsomal Clearance” value in data set [2] came out at 1.7 mL/min/kg. Further, the thermodynamic solubility in the data set “Lysa solubility” was determined as 610 µg/mL (≈ 1010 µM). In the data set on CYP3A4, the “% of Positive control (10 μM Rifampicin)” value is on record as 7.3%.
In the case of `COC(=O)C1=C(CN2CCN3C(=O)N(CC(C)(C)C(=O)O)C[C@@H]3C2)NC(c2nccs2)=N[C@H]1c1ccc(F)c(F)c1C` [Example 43, 3-[(8aS)-7-[[(4S)-4-(3,4-difluoro-2-methyl-phenyl)-5-methoxycarbonyl-2-thiazol-2-yl-1,4-dihydropyrimidin-6-yl]methyl]-3-oxo-5,6,8,8a-tetrahydro-1H-imidazo[1,5-a]pyrazin-2-yl]-2,2-dimethyl-propanoic acid], the pEC50 with HBV (setting [3]) is 8.22. The “Human Microsomal Clearance” value in data set [2] is 3.1 mL/min/kg. In the data set on CYP3A4, the “% of Positive control (10 μM Rifampicin)” value came to 0.2%.
As to `COC(=O)C1=C(CN2CCN3C(=O)N(CC(C)(C)CC(=O)O)C[C@@H]3C2)NC(c2nccs2)=N[C@H]1c1ccc(F)cc1Cl` [Example 55, 4-[(8aS)-7-[[(4R)-4-(2-chloro-4-fluoro-phenyl)-5-methoxycarbonyl-2-thiazol-2-yl-1,4-dihydropyrimidin-6-yl]methyl]-3-oxo-5,6,8,8a-tetrahydro-1H-imidazo[1,5-a]pyrazin-2-yl]-3,3-dimethyl-butanoic acid], the pEC50 with HBV (setting [3]) was 8.30. This molecule also returned a CC50 at 5 days in data set [1] of more than 100000 nM. Further, the “Selectivity index (CC50/EC50)” value in the data set on HepDE19 cells was more than 20000. In addition, in the data set “Lysa solubility”, the thermodynamic solubility turned out to be 470 µg/mL (≈ 759 µM). In the data set on CYP3A4, the “% of Positive control (10 μM Rifampicin)” value is on record as 0.1%.
